Tests used:
[1] = test system: HN-13-0014 xenograft; assay: HN-13-0014 xenograft model, Compound 1 and radiation; format: in vivo, mice
Excerpt: The HN-13-0014 xenograft model is a human head and neck primary tumor model. Approximately nine week old female BALB/c nude (Shanghai Sino-British SIPPR/BK Laboratory Animal Co., LTD.) mice were implanted subcutaneously with approximate 30 mm^3 HN-13-0014 tumor slices in the right flank. When the mean tumor volume reached approximately 162 mm^3, the animals were randomized into 10 treatment groups (n=8/group).
Compound 1 [((1R,2R,3S,4R)-2,3-dihydroxy-4-(2-(3-(trifluoromethylthio) ? phenyl)pyrazolo[1,5-a]pyrimidin-7-ylamino)cyclopentyl)methyl sulfamate] is formulated in 10% HPbCD in sterile water and administered intravenously on a BIW (twice/week schedule; Monday and Thursday, i.e. days 0, 3, 7, 10, 14, 17) for 3 weeks in the HN-13-0014 and LU-01-0030 (first study) models. Compound 1 formulation was prepared weekly and stored at room temperature in the dark.
Beam-focused radiation was delivered using a either 1 or 2 Gray dosed on days 0, 1, 7, and 8 or on days 0, 3, 7, and 10 in the HN-13-0014 and LU-01-0030 (first study) models. A Rad Source RS-2000 X-ray irradiator was used for therapy (Rad Source). Before radiation, animals were anesthetized by i.p. injection using 1.0% sodium pentobarbital at 80 mg/kg (Vendor: Sigma). Focused radiation was applied to each mouse at 1 Gy/min.
(§1) Tumors were measured twice weekly using vernier calipers. Tumor volumes were calculated using the following formula: (0.5×[length×width^2]). Treatment groups and dosing/treatment schedules are indicated in Tables 1a, 2a, 3a, 4a, and 5a below. Tumor size and body weight are measured approximately twice a week for the duration of the study. Mice are euthanized when their tumor volume reached approximately 1000 mm^3. Tumor growth continued to be monitored after the dosing period in some studies. In Tables 1a, 2a, 3a, 4a, and 5a tumor volumes are shown for HN-13-0014 (day 21), LU-01-0030 (day 21), the second LU-01-0030 study (day 20), LU-01-0266 (day 20), ST-02-0004 (day 21) and FIN-13-0007 (day 24), respectively. Average tumor volume is reported as a function of time for selected groups of selected studies.
(§2) Measurements from day 0 to day 20, day 21 or day 24 are analyzed as specified in Tables below. All tumor volumes have a value of 1 added to them before log10 transformation. For each animal, the log tumor volume at day 0 is subtracted from the log tumor volume on the subsequent days. This difference vs. time is used to calculate an area under the curve (AUC) for each animal using the trapezoid rule. In instances when an animal in a treatment group is removed early from the study, the last observed tumor value is carried forward through all subsequent time points. The synergy score for the combination of agents A and B is defined as 100*(mean(AUCAB)−mean(AUCA)−mean(AUCB)+mean(AUCctl))/mean(AUCctl): where AUCAB, AUCA, AUCB, and AUCctl are the AUC values for animals in the combination group, the A group, the B group, and the control group, respectively. The standard error of the synergy score is computed based on the variation in the AUC values among the animals. […] If the P-value is above 0.05, then the combination is considered to be additive. If the P-value is below 0.05, and the synergy score is less than zero, then the combination is considered to be synergistic. If the P-value is below 0.05 and the synergy score was greater than zero, but the mean AUC for the combination was lower than the lowest mean AUC among the two single agent treatments, then the combination was sub-additive. If the P-value is below 0.05 and if the synergy score was greater than zero, and the mean AUC for the combination was greater than the mean AUC for at least one of the single agent treatments, then the combination was antagonistic.

[2] = test system: LU-01-0030 xenograft; assay: second LU-01-0030 xenograft study, Compound 1 and radiation; format: in vivo, mice
Excerpt: In a second study with the LU-01-0030 xenograft model, 6-8 week old female BALB/c nude (Shanghai Sino-British SIPPR/BK Laboratory Animal Co., LTD.) mice were implanted subcutaneously with approximate 20-30 mm^3 LU-01-0030 tumor slices in the right flank. When the mean tumor volume reached approximately 182 mm^3, the animals were randomized into 6 treatment groups (n=8/group).
Compound 1 [((1R,2R,3S,4R)-2,3-dihydroxy-4-(2-(3-(trifluoromethylthio) ? phenyl)pyrazolo[1,5-a]pyrimidin-7-ylamino)cyclopentyl)methyl sulfamate] is formulated in 10% HPbCD in sterile water and administered intravenously on days 0, 3, 7, 10, 14, 17 in the LU-01-0266 and HN-13-0007 models and on days 0, 3, 8, 11, 15, 18 in the ST-02-0004 model and in the second study with the LU-01-0030 model. Compound 1 formulation was prepared weekly and stored at room temperature in the dark.
Beam-focused radiation was delivered using 4 Gray dosed on day 0 in the second study for the LU-01-0030 model.
as §1, §2

[3] = 6.25 mg/kg Compound 1 + 2 Gy Radiation D0, 1, 7, 8
[4] = 6.25 mg/kg Compound 1 + 2 Gy Radiation D0, 3, 7, 10
[5] = 15 mg/kg Compound 1 + 2 Gy Radiation D0, 1, 7, 8
[6] = 15 mg/kg Compound 1 + 2 Gy Radiation D0, 3, 7, 10
[7] = 6.25 mg/kg Compound 1 + 4 Gy Radiation D0
[8] = 15 mg/kg Compound 1 + 4 Gy Radiation D0

NS(=O)(=O)OC[C@H]1C[C@@H](Nc2ccnc3cc(-c4cccc(SC(F)(F)F)c4)nn23)[C@H](O)[C@@H]1O [Compound 1, ((1R,2R,3S,4R)-2,3-dihydroxy-4-(2-(3-(trifluoromethylthio)phenyl)pyrazolo[1,5-a]pyrimidin-7-ylamino)cyclopentyl)methyl sulfamate]
Classification [1, 3]: Additive (If the P-value is above 0.05, then the combination is considered to be additive) | Synergy score [1, 3]: 8.6 | Classification [1, 4]: Additive (If the P-value is above 0.05, then the combination is considered to be additive) | Synergy score [1, 4]: 7.7 | Tumor Volume Day 21 ([1]; 6.25 mg/kg Compound 1 IV BIWx3 + 2 Gy Radiation Beam D 0, 1, 7, 8): 392.7 mm^3 | Tumor Volume Day 21 ([1]; 6.25 mg/kg Compound 1 IV BIWx3 + 2 Gy Radiation Beam D 0, 3, 7, 10): 381.9 mm^3 | Tumor Volume Day 21 ([1]; 6.25 mg/kg Compound 1 IV BIWx3, single agent): 575.9 mm^3 | Classification [1, 5]: Additive (If the P-value is above 0.05, then the combination is considered to be additive) | Synergy score [1, 5]: 7.9 | Classification [1, 6]: Additive (If the P-value is above 0.05, then the combination is considered to be additive) | Synergy score [1, 6]: 3.2 | Tumor Volume Day 21 ([1]; 15 mg/kg Compound 1 IV BIWx3 + 2 Gy Radiation Beam D 0, 1, 7, 8): 372.4 mm^3 | Tumor Volume Day 21 ([1]; 15 mg/kg Compound 1 IV BIWx3 + 2 Gy Radiation Beam D 0, 3, 7, 10): 356.2 mm^3 | Tumor Volume Day 21 ([1]; 15 mg/kg Compound 1 IV BIWx3, single agent): 539.9 mm^3 | combination effect ([1]; Compound 1 with 2 Gy radiation): additive combination effect | anti-tumor activity compared to vehicle control ([1]; single agent, IV at 6.25 and 15 mg/kg BIW for 3 weeks): modest anti-tumor activity | Classification [2, 7]: Additive (If the P-value is above 0.05, then the combination is considered to be additive) | Synergy score [2, 7]: −74.5 | Tumor Volume Day 20 ([2]; 6.25 mg/kg Compound 1 IV D 0, 3, 8, 11, 15, 18 + 4 Gy Radiation Beam D 0): 83.8 mm^3 | Tumor Volume Day 20 ([2]; 6.25 mg/kg Compound 1 IV D 0, 3, 8, 11, 15, 18, single agent): 648.9 mm^3 | Classification [2, 8]: Additive (If the P-value is above 0.05, then the combination is considered to be additive) | Synergy score [2, 8]: −10.3 | Tumor Volume Day 20 ([2]; 15 mg/kg Compound 1 IV D 0, 3, 8, 11, 15, 18 + 4 Gy Radiation Beam D 0): 2.04 mm^3 | Tumor Volume Day 20 ([2]; 15 mg/kg Compound 1 IV D 0, 3, 8, 11, 15, 18, single agent): 67.8 mm^3 | combination effect ([2]; Compound 1 with 4 Gy radiation): additive combination effect

— patent publication US10335411B2, “Administration of ubiquitin-activating enzyme inhibitor and radiation” (Millennium Pharmaceuticals, Inc., priority 2014, dated 2019)
